# Experimental data published in paper PMC3234597, “Two Panels of Steroid Receptor Luciferase Reporter Cell Lines for Compound Profiling” (Combinatorial Chemistry & High Throughput Screening, 2011).
# pEC50, pIC50: −log10 of the molar value. “Also recorded” adds a separate entry of the source. Like-named read-outs stand apart in the source and are kept apart here.
# Key:
# Format in all cases: cell-based
# [1] = target: T1, ERβ-LBD fused to Gal4-DBD (Homo sapiens, UniProt Q92731); test: U2OS-ERβ-LBD/9xGal4UAS luciferase reporter cell line; details: for EC50: read-out: Log EC50 (converted)
# T1 construct: region comprising ERβ-LBD and a piece of the hinge region; expressed in transfected cells; host or cells: U2OS
# human GR (full-length) [2] = target: T2, human GR (full-length) (Homo sapiens, UniProt P04150); test: U2OS-GR/MMTV luciferase reporter cell line (full-length receptor)
# T2 construct: expression vectors encoding full-length steroid receptors: pcDNA3-hAR and pcDNA3-hGR; host or cells: U2OS
# T2 sequence (P04150 1-777): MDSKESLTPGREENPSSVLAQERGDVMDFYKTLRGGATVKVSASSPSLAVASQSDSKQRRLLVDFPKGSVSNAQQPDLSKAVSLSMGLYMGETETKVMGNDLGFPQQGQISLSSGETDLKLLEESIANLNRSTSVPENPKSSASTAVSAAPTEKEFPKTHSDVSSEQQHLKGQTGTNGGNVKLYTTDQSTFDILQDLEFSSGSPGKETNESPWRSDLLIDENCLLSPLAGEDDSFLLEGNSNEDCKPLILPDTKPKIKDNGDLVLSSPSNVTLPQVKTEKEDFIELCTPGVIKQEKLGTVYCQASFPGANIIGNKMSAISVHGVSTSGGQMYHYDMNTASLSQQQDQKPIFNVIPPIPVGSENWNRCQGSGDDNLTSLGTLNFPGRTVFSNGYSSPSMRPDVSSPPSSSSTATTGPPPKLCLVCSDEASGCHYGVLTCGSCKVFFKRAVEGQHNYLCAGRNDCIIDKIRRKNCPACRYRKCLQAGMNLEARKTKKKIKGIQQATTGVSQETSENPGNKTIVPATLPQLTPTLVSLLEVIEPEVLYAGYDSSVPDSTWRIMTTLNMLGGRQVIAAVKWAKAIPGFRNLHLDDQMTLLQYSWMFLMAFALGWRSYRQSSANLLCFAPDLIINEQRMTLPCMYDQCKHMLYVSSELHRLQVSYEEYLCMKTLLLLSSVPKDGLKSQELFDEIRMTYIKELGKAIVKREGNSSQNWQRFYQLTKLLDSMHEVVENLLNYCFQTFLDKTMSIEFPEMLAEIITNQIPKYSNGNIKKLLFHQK
# PR-LBD fused to Gal4-DBD = target: T3, PR-LBD fused to Gal4-DBD (Homo sapiens, UniProt P06401); test: U2OS-PR-LBD/9xGal4UAS luciferase reporter cell line; details: for IC50: antagonist mode, PR-LBD/9xGal4UAS, log10 of molar IC50, mean ± SEM, read-out: Log IC50 (converted); for EC50: read-out: Log EC50 (converted)
# T3 construct: PR-LBD region was PCR amplified using the following primer combination; host or cells: U2OS
# T3 sequence (P06401 679-913 limits assumed): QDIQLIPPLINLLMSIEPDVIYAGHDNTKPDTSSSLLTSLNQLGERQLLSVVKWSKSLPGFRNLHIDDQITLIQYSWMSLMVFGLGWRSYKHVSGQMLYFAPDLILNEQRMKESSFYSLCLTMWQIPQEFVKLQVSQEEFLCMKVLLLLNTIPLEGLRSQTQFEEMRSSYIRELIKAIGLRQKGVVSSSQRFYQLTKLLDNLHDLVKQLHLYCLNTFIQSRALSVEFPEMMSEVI
# GR-LBD fused to Gal4-DBD = target: T4, GR-LBD fused to Gal4-DBD (Homo sapiens, UniProt P04150); test: U2OS-GR-LBD/9xGal4UAS luciferase reporter cell line
# T4 construct: expressed in transfected cells; host or cells: U2OS
# T4 sequence (P04150 524-758 limits assumed): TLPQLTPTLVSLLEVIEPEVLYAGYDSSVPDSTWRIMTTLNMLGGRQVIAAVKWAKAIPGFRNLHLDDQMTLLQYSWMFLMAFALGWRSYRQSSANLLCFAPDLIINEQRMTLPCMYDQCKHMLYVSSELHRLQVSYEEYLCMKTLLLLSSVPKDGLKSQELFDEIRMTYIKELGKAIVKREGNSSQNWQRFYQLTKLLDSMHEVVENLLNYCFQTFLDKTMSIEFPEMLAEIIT
# human GR (full-length) [3] = target: T2, human GR (full-length); test: U2OS-GR/3xGRE luciferase reporter cell line (full-length receptor)
# human ERβ (full-length) = target: T5, human ERβ (full-length) (Homo sapiens, UniProt Q92731); test: U2OS-ERβ/3xERE luciferase reporter cell line (full-length receptor); details: for EC50: read-out: Log EC50 (converted)
# T5 construct: expression vectors encoding full-length steroid receptors: pcDNA3-hERα and pcDNA3-ERβ; expressed in transfected cells; host or cells: U2OS
# human MR (full-length) = target: T6, human MR (full-length) (Homo sapiens, UniProt P08235); test: U2OS-MR/MMTV luciferase reporter cell line (full-length receptor); details: for activity profile in words: full-length MR format, antagonist mode; for EC50: read-out: Log EC50 (converted)
# T6 construct: expression vectors encoding full-length steroid receptors: pcDNA3-hAR, pcDNA3-hGR and pcDNA3-hMR; expressed in transfected cells; host or cells: U2OS
# T6 sequence (P08235 1-984): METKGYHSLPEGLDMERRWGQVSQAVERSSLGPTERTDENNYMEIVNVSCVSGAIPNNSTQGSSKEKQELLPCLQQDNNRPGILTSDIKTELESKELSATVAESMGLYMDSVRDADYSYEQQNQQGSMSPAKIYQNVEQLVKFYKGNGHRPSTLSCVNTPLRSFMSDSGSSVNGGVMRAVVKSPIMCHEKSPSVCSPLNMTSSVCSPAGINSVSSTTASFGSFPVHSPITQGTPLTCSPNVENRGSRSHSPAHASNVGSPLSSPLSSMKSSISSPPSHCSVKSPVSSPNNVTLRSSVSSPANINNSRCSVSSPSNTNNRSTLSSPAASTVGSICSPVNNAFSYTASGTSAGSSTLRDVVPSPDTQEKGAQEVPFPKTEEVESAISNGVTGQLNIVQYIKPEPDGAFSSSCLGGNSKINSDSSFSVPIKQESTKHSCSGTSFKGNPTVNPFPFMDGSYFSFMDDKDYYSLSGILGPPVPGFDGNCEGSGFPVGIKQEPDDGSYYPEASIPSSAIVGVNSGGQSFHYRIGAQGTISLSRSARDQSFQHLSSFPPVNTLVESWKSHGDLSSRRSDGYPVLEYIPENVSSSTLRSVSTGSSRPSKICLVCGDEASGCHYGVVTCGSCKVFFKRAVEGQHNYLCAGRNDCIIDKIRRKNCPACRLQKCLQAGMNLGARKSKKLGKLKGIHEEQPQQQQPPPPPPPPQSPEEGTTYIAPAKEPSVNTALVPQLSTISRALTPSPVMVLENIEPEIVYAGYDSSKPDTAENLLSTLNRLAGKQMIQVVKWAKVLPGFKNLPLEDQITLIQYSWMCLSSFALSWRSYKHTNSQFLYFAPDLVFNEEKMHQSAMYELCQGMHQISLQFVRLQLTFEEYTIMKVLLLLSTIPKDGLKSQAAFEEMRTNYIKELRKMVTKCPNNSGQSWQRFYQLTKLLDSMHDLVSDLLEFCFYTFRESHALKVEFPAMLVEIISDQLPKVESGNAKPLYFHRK
# MR-LBD fused to Gal4-DBD = target: T7, MR-LBD fused to Gal4-DBD (Homo sapiens, UniProt P08235); test: U2OS-MR-LBD/9xGal4UAS luciferase reporter cell line; details: for activity profile in words: MR-LBD expressing reporter cell line, agonist and antagonist mode; for EC50: read-out: Log EC50 (converted)
# T7 construct: MR-LBD was cloned by RT-PCR from total RNA isolated from HEK293 cells; expressed in transfected cells; host or cells: U2OS
# T7 sequence (P08235 726-964 limits assumed): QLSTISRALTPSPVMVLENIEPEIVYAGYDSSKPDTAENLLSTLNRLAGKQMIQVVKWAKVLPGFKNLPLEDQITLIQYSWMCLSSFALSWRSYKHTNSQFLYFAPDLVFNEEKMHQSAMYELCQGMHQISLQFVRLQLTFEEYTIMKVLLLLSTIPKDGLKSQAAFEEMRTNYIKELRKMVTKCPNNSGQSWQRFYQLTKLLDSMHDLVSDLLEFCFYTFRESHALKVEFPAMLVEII
# T1 sequence (Q92731 264-498 limits assumed): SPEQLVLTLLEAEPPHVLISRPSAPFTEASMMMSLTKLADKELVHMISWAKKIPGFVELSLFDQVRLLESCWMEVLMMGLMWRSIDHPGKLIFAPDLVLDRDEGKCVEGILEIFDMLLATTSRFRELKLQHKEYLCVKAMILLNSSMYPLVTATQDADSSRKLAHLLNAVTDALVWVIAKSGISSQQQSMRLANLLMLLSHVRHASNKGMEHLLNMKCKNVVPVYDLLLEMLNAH
# T5 sequence (Q92731 whole entry): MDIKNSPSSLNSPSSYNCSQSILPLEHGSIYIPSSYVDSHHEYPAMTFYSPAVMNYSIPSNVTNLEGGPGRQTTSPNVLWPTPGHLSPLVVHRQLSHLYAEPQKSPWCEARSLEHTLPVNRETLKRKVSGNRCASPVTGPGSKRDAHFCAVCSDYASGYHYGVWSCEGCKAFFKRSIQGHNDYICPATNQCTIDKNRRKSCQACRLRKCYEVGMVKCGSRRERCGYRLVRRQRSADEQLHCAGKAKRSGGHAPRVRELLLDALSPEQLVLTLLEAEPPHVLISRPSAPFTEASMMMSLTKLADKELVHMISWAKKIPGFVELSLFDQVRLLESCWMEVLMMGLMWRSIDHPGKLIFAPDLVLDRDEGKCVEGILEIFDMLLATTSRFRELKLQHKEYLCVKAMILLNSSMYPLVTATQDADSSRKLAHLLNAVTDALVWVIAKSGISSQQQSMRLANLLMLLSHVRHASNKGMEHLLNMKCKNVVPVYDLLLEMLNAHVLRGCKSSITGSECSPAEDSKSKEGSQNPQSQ
Compound,EC50 [1],IC50 (PR-LBD fused to Gal4-DBD),EC50 (PR-LBD fused to Gal4-DBD),EC50 (human ERβ (full-length)),activity profile in words (human MR (full-length)),activity profile in words (MR-LBD fused to Gal4-DBD),EC50 (human MR (full-length)),EC50 (MR-LBD fused to Gal4-DBD),other results
CC(=O)C1(O)CCC2C3CCC4=CC(=O)CCC4(C)C3CCC21C (stereo not drawn) [17α-hydroxyprogesterone],> 10 µM,> 10 µM,> 10 µM,> 10 µM,,,,,EC50 (human GR (full-length) [2]; read-out: Log EC50 (converted)): > 10 µM; EC50 (GR-LBD fused to Gal4-DBD; read-out: Log EC50 (converted)): > 10 µM; EC50 (human GR (full-length) [3]; read-out: Log EC50 (converted)): > 10 µM
"C[C@H]1C[C@H]2[C@@H]3CCC4=CC(=O)C=C[C@]4(C)[C@@]3(F)[C@@H](O)C[C@]2(C)[C@@]1(O)C(=O)CO [Betamethasone, betamethasone]",,> 10 µM,4.79 µM,,no sign of antagonistic activity,only weakly and partially activated; also recorded: pronounced full antagonist effect,,,
"CC/C(=C(/CC)c1ccc(O)cc1)c1ccc(O)cc1 [DES, Diethylstilbestrol]",,,,,,,> 10 µM,> 10 µM,
"CC(=O)O[C@]1(C(C)=O)CC[C@H]2[C@@H]3C=C(Cl)C4=CC(=O)[C@@H]5C[C@@H]5[C@]4(C)[C@H]3CC[C@@]21C [Cyproterone acetate, cyproterone acetate]",> 10 µM,,,> 10 µM,,,> 10 µM,> 10 µM,"luciferase activity in ERβ reporter cell lines (human ERβ (full-length); ERβ reporter cell lines, even at 10 μM concentration): did not find any sign of luciferase activity"
"C[C@]12CC[C@H]3[C@@H](CCC4=CC(=O)CC[C@@]43C)[C@@H]1CC[C@@H]2O [Testosterone, testosterone]",,,,,,,,,pEC50 [1]: 5.54; pEC50 (human GR (full-length) [2]): < 5.00; pEC50 (PR-LBD fused to Gal4-DBD): 7.33; pIC50 (PR-LBD fused to Gal4-DBD): < 5.00; pEC50 (human MR (full-length)): < 5.00; pEC50 (GR-LBD fused to Gal4-DBD): < 5.00; pEC50 (human GR (full-length) [3]): < 5.00; pEC50 (MR-LBD fused to Gal4-DBD): < 5.00; pEC50 (human ERβ (full-length)): 6.31
"C[C@@H]1C[C@H]2[C@@H]3CCC4=CC(=O)C=C[C@]4(C)[C@@]3(F)[C@@H](O)C[C@]2(C)[C@@]1(O)C(=O)CO [Dexamethasone, dexamethasone]",,> 10 µM,4.79 µM,,no sign of antagonistic activity,only weakly and partially activated; also recorded: pronounced full antagonist effect,,,
